Experimental data: ChEMBL document CHEMBL3988442, “University of Dundee, Small-Polar-MMV Screening Library” (2021)
“And” between values parts separate entries of the source, which are not always exact repeats. Equal entries are not always repeated.

Experiments:
[1] = target: T1, Arginase-2, mitochondrial (Homo sapiens, UniProt P78540); experiment: in vitro enzyme assay to detect the production of urea directly proportional to the activity of Arginase II; format: functional
T1 sequence (P78540 whole entry): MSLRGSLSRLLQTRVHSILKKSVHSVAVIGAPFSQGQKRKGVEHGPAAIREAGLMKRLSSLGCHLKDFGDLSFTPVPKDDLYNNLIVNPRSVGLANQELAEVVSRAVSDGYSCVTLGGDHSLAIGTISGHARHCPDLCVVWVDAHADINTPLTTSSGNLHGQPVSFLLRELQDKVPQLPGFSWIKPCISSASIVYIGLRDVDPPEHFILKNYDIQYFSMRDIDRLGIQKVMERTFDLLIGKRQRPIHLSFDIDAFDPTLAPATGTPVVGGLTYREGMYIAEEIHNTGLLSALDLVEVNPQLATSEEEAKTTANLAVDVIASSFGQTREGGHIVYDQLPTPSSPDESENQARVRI

[2] = test system: Schistosoma mansoni; experiment: High throughput screening of compounds against Schistosoma mansoni motility; format: functional; set-up: dose or concentration left out as unconfirmed
[3] = Trypanosoma cruzi proteasome luciferase counter-screen; format: functional, N/A
[4] = test system: Plasmodium falciparum; experiment: Plasmodium falciparum sporozoite viability assay; format: functional, organism-based; settings: for IC50: Plasmodium falciparum
[5] = target: T2, Proteasome subunit beta (Trypanosoma cruzi, UniProt O96673); experiment: Trypanosoma cruzi proteasome chymotrypsin-like activity (TcProtChymo) assay.; format: functional
T2 sequence (O96673 whole entry): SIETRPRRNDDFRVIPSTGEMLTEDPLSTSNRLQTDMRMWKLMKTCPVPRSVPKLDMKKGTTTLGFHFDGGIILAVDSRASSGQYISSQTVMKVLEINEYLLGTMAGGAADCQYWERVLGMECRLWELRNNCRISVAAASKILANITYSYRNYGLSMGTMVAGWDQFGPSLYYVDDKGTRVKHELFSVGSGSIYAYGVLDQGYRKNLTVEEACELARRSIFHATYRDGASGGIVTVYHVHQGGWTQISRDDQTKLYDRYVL

[6] = target: Chromo domain-containing protein 1 (Saccharomyces cerevisiae (strain ATCC 204508 / S288c) (Baker's yeast), UniProt P32657); experiment: ScCHD-1 Enzyme Inhibition Assay; format: functional
[7] = target: T3, Coenzyme A biosynthesis bifunctional protein CoaBC (Mycobacterium tuberculosis (strain ATCC 25618 / H37Rv), UniProt P9WNZ1); experiment: Biomol Green assay for MtCoaBC inhibitor, OD650 read; format: functional
T3 sequence (P9WNZ1 whole entry): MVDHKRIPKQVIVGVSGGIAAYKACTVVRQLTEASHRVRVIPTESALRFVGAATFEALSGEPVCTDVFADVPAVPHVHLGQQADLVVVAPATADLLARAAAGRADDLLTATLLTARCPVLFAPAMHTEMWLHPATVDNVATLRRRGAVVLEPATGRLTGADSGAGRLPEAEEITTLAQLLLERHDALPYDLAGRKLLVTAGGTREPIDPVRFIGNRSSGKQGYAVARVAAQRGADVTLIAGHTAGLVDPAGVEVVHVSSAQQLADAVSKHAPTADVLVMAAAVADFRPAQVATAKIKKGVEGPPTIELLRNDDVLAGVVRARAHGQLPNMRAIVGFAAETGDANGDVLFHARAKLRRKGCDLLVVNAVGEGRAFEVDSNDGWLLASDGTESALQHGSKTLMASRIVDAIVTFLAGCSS

[8] = target: T4, Histidine--tRNA ligase (Leishmania infantum, UniProt A4I591); experiment: Leishmania infantum Histidine tRNA synthetase (LdHisRS); format: functional
T4 sequence (A4I591 whole entry): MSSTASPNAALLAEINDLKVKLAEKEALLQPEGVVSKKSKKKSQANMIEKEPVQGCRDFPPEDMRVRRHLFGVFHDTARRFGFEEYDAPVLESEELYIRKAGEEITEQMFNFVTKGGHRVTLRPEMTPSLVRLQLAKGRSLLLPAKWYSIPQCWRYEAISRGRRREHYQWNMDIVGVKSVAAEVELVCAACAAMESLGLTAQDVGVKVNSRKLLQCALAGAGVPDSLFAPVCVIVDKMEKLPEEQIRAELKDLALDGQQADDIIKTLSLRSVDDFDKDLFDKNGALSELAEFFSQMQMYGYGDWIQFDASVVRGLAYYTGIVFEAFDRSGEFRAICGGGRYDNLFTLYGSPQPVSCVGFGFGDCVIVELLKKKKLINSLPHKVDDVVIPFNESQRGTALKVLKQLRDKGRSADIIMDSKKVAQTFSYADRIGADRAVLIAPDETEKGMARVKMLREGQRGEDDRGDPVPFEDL

[9] = target: T5, Ubiquitin-activating enzyme e1, putative (Leishmania donovani (strain BPK282A1), UniProt E9BSI1); experiment: Leishmania donovani Ubiquitin Activating Enzyme (LdE1); format: functional
T5 sequence (E9BSI1 whole entry): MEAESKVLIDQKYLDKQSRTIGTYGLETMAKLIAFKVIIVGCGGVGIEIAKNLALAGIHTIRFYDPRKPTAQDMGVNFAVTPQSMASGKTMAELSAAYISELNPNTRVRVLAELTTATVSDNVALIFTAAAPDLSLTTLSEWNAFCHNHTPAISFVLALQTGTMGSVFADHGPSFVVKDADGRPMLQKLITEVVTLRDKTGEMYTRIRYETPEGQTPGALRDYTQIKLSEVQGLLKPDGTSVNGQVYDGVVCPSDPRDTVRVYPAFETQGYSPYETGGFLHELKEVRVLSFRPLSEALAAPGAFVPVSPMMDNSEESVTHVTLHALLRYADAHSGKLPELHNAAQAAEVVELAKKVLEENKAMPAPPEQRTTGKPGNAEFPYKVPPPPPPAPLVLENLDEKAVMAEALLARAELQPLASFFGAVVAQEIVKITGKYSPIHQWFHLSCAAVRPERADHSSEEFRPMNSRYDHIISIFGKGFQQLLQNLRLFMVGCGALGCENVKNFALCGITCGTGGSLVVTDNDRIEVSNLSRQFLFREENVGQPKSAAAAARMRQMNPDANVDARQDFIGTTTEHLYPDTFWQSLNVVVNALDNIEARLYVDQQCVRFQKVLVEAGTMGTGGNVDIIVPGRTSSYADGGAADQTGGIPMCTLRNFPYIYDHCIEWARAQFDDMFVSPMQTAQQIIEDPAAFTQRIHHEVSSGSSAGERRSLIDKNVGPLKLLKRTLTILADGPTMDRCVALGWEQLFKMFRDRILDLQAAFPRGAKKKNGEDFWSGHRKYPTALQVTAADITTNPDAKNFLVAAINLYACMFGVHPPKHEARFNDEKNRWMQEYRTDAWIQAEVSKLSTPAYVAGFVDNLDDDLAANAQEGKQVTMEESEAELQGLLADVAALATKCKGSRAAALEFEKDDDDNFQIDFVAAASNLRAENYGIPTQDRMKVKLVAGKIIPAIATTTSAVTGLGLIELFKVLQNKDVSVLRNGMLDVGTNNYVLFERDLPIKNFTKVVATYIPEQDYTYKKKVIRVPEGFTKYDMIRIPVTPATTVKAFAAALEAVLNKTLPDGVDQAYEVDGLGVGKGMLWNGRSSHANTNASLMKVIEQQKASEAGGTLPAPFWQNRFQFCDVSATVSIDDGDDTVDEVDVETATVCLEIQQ

[10] = target: Lysine--tRNA ligase (Plasmodium falciparum (isolate 3D7), UniProt Q8IDJ8); experiment: Pf-KRS-1 (Lysyl-RNA Synthetase-1, KRS-1, cytosolic KRS) from Plasmodium falciparum. Inhibitor assay, 384 well plate, luminescence read.; format: functional
Sequence of Lysine--tRNA ligase (Q8IDJ8 whole entry): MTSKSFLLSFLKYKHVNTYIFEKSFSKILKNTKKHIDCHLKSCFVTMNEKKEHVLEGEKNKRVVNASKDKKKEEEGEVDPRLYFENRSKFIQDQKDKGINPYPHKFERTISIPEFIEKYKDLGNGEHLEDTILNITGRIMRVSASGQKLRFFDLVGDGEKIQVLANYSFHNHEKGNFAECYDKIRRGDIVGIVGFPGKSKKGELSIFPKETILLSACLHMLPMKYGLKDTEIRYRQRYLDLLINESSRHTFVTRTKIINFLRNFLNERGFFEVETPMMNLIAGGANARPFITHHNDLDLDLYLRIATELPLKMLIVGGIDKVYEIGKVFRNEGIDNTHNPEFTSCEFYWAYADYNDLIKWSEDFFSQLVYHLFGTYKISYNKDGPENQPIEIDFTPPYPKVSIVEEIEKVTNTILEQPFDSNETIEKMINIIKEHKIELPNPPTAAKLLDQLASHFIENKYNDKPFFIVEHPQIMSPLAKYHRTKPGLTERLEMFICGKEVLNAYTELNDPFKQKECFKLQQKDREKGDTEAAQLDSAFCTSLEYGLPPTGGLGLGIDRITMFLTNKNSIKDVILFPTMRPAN

Sequence of Chromo domain-containing protein 1 (P32657 whole entry, the tested form may be a part): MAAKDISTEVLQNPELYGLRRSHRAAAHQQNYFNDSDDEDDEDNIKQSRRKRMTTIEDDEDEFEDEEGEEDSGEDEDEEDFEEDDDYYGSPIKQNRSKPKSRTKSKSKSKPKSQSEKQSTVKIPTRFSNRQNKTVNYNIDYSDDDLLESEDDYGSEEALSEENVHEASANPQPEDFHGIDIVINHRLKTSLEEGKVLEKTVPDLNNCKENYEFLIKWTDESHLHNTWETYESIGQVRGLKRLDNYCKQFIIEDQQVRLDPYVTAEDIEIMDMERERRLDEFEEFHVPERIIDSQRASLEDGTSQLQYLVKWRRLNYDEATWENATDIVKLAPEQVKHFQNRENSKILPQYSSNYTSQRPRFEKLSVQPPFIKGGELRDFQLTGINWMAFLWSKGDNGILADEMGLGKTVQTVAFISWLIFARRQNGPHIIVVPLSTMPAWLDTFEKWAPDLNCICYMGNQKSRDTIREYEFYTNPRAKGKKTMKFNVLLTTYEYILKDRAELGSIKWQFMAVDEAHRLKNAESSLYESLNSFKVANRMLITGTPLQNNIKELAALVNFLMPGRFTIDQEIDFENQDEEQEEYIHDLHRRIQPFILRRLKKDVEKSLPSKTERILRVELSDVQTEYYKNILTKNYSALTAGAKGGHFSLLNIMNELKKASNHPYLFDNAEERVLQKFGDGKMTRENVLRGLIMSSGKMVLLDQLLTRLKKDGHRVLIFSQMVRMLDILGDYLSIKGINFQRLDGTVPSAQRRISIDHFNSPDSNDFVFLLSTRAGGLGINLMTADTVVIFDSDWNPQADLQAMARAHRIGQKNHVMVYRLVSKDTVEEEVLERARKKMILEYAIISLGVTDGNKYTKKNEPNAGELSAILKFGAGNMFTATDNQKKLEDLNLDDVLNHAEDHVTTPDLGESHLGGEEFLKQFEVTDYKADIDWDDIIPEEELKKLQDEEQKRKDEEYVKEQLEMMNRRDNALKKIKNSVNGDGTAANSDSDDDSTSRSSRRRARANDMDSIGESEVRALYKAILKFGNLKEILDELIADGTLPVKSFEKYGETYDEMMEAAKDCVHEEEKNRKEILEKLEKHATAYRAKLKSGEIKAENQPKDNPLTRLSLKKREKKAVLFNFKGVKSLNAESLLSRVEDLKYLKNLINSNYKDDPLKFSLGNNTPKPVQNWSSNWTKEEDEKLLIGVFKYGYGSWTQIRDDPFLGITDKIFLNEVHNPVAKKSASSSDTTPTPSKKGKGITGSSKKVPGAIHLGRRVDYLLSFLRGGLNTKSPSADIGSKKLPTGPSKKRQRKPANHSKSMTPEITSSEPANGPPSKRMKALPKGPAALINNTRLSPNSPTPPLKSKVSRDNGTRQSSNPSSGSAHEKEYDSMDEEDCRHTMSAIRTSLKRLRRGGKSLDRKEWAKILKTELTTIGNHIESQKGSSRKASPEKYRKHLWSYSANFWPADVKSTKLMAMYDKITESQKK

CC(C)CN1CCC(NC(=O)c2ccc(F)cc2I)CC1
IC50 [1]: > 100 µM | Percent Effect [2]: 28.14%

Cc1cc(CNC(=O)N2CCN(c3nc(C)c(C)s3)CC2)no1
IC50 [1]: > 100 µM

CN(Cc1ccccn1)C1COC2(CCN(Cc3cccnc3)CC2)C1 (centres undefined)
IC50 [1]: > 100 µM

COc1ccccc1CN1CCC2(CC1)CC(Oc1ccccn1)CO2 (centres undefined)
IC50 [1]: > 100 µM

Cc1nc(NCC2CC2)nc2c1COCC21CCN(C)C1 (centres undefined)
IC50 [1]: > 100 µM

Cc1ncsc1CCC(=O)N1CCCC[C@H](N(C)C)C1
IC50 [1]: > 100 µM

COCc1noc(-c2ccc(N3CCCCC3CO)nc2)n1 (centres undefined)
pIC50 [3]: 4.522 and 4.491 | pIC50 [4]: 7.545 | IC50 [4]: 0.0293 µM | IC50 [5]: 8.74 µM and 8.62 µM

CSc1ccccc1C(C(=O)O)N1CCN(Cc2ccccn2)CC1 (centres undefined)
IC50 [1]: > 100 µM

Cc1[nH]ccc1C(=O)N1CCCC(c2nccn2Cc2cscn2)C1 (centres undefined)
IC50 [1]: > 100 µM

CN1CCCC1c1ccc(C(=O)N2CCc3ccccc3C2)s1 (centres undefined)
pIC50 [3]: 4.715 and 4.643 | pIC50 [4]: 6.857 | IC50 [4]: 0.121 µM | IC50 [5]: 10.3 µM and 8.37 µM

COc1cccc([C@@H]2CN(C(=O)c3ccc(C)cc3O)C[C@H]2C(=O)O)c1
IC50 [1]: > 100 µM

COc1ccccc1Oc1ncccc1CNC(=O)C(C)N1CCCC1 (centres undefined)
IC50 [1]: > 100 µM | Percent Effect [2]: 13.35%

COc1ccc2c(c1)OCC(CNC(=O)c1ccncc1)C2 (centres undefined)
IC50 [6]: > 29.5 µM | IC50 [1]: > 100 µM

CN(CCO)C(=O)c1coc(CN2CCN(c3ccccc3F)CC2)n1
IC50 [6]: > 29.5 µM | IC50 [1]: > 100 µM

CCC(C(=O)NC)N(c1cccc(C)c1)S(C)(=O)=O (centres undefined)
IC50 [1]: > 100 µM

Cc1ccc([C@@H]2CN(S(=O)(=O)N(C)C)C[C@H]2N(C)C)cc1
IC50 [1]: > 100 µM

Cc1cnn(C2CN(CC(=O)NCc3ccccn3)C2)c1
IC50 [7]: > 30.2 µM | IC50 [8]: > 100 µM | pIC50 [3]: < 4 | IC50 [5]: 14.9 µM and 19.7 µM

Cc1ccc(N(C)C2CCN(C(=O)CCc3ccco3)CC2)nn1
IC50 [7]: > 30.2 µM | IC50 [8]: 41.4 µM and 49.7 µM | pIC50 [3]: < 4 | IC50 [5]: 12.8 µM and 16.7 µM

CC(C)c1n[nH]c(C(=O)Nc2cc[nH]n2)c1Br
pIC50 [3]: 4.666 and 4.69 | pIC50 [4]: 7.564 | IC50 [4]: 0.0186 µM | IC50 [5]: 5.88 µM and 6.65 µM

Cc1nc(C)c(C(=O)OCCNc2ncccc2C#N)s1
IC50 [9]: > 100 µM | pIC50 [3]: 4.56 and 4.563 | IC50 [5]: 7.22 µM and 8.26 µM

CC(O)CNCc1ccc(OCc2ccc3c(c2)OCCO3)cc1.Cl (centres undefined)
pIC50 [3]: 4.507 and 4.501 | pIC50 [4]: 6.937 | IC50 [4]: 0.0903 µM | IC50 [5]: 9.3 µM and 9.77 µM

CN(C)C(=O)[C@@H]1CCO[C@@H]2CCN(CCc3ccccc3)C[C@@H]21
IC50 [1]: > 100 µM | IC50 [10]: > 50.1 µM

O=C(NCc1ccccn1)[C@]12COC[C@H]1CN(C1CCC1)C2
IC50 [1]: > 100 µM

COCCN1C[C@@H]2CCCO[C@@H]2[C@H](N(C)Cc2ccco2)C1
IC50 [1]: > 100 µM
